We go through 4 compounds from BindingDB's records for doi:10.1016/j.bioorg.2007.03.001 (Burnham Institute For Medical Research, 2007).

For this experiment, the target named is Isoform Bcl-X(L) of Bcl-2-like protein 1 (Bcl-xL) (Homo sapiens, UniProt Q07817). The experiment in a line: DELFIA Assay. The source says: In order to figure whether these compounds were capable of displacing the interactions between Bci-XL and it's pro-apoptotic counterparts, it was testes in a heterogeneous lanthanide-based assay that have recently developed based on the DELFIA (dissociation enhanced lanthanide fluoro-immuno assay)technology (Perkin-Elmer).
Chain of Isoform Bcl-X(L) of Bcl-2-like protein 1 (Bcl-xL) (Q07817 whole entry G70A, canonical isoform): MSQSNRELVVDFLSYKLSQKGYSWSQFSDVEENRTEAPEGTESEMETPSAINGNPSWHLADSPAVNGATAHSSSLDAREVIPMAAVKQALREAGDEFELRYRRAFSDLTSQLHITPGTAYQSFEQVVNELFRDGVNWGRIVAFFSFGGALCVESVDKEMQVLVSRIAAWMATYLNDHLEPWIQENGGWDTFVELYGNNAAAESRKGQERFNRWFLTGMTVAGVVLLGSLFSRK

Regarding `N#Cc1c(-c2ccc3c(c2)OCO3)cc(-c2ccccc2O)[nH]c1=O` [BI-21C5], the IC50 stood at 5.1 µM and the Kd worked out at 19.8 µM. The compound `Cc1csc(NC(=O)c2ccccc2C(=O)O)c1-c1nc2ccccc2s1` [BI-21C4] yielded an IC50 of 3.3 µM. In the case of `O=C(O)c1ccccc1C(=O)c1ccc(Sc2ccc(Cl)cc2)c([N+](=O)[O-])c1` [BI-21C6], the IC50 stood at 0.5 µM. This IC50 is about 6.6-fold lower than that of the compound before. `O=C(O)c1ccccc1C(=O)c1ccc(Sc2ccccc2)c([N+](=O)[O-])c1` [BI-21C7] came in with an IC50 of 5.7 µM. This IC50 is about 11-fold higher than that of the compound before.

Usually IC50 stands for the point on the concentration scale where inhibition reaches its midpoint. In general, Kd refers to the constant that tells how readily two partners part at equilibrium.
